This passage reports Kd results from article PMC5437664, “Inhibition of O-GlcNAcase leads to elevation of O-GlcNAc tau and reduction of tauopathy and cerebrospinal fluid tau in rTg4510 mice” (Molecular Neurodegeneration, 2017).

The test concerns the target O-GlcNAcase (OGA) (Mus musculus, UniProt Q9EQQ9). Nature of the test: biochemical.

O-GlcNAcase (OGA), sequence (Q9EQQ9 whole entry): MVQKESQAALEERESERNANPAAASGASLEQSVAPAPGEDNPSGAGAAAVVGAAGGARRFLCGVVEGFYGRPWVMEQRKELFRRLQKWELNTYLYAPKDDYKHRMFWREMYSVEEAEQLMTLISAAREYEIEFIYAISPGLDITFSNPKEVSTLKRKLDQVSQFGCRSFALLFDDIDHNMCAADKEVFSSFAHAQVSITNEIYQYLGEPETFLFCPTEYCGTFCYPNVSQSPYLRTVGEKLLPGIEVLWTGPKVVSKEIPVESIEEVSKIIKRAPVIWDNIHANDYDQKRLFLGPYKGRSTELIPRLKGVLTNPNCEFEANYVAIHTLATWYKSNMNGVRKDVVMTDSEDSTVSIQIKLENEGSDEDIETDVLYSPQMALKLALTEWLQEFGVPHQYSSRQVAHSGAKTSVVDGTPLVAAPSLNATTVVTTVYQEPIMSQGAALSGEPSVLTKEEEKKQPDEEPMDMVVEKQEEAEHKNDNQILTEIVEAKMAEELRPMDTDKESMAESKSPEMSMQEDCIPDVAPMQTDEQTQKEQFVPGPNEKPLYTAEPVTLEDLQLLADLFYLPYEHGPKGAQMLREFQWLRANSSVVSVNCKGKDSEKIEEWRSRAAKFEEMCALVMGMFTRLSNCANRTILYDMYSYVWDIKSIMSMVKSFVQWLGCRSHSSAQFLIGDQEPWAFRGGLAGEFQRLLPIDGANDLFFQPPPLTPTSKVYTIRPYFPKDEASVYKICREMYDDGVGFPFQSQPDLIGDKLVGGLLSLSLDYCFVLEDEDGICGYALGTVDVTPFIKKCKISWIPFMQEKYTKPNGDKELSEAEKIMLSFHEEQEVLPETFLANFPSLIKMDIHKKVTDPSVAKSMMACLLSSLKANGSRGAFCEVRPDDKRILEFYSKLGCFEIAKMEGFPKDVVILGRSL

As a reminder, the Kd is the concentration at which binding is half-saturated. For `CCNC1=N[C@@H]2[C@@H](O)[C@H](O)[C@@H](CO)O[C@@H]2S1` [Thiamet G], the Kd is 1.7 nM.
